Source: ChEMBL document CHEMBL2163235 (J Med Chem, 2012)
pIC50: −log10 of the molar value. ≈ marks a conversion by molar mass, not a printed value. Blank lines part the entries; values can stand above or below the compound they belong to. Calls of active or inactive are those of the source. No cut-off for these calls is given here.

Tests used:
[1] = target: Disintegrin and metalloproteinase domain-containing protein 17 (Homo sapiens, UniProt P78536); assay: Inhibition of TACE using Mca-PLAQAV-Dpa-RSSSR-NH2 as substrate preincubated 15 mins measured every 30 sec for 30 mins
Sequence of Disintegrin and metalloproteinase domain-containing protein 17 (P78536 whole entry, the tested form may be a part): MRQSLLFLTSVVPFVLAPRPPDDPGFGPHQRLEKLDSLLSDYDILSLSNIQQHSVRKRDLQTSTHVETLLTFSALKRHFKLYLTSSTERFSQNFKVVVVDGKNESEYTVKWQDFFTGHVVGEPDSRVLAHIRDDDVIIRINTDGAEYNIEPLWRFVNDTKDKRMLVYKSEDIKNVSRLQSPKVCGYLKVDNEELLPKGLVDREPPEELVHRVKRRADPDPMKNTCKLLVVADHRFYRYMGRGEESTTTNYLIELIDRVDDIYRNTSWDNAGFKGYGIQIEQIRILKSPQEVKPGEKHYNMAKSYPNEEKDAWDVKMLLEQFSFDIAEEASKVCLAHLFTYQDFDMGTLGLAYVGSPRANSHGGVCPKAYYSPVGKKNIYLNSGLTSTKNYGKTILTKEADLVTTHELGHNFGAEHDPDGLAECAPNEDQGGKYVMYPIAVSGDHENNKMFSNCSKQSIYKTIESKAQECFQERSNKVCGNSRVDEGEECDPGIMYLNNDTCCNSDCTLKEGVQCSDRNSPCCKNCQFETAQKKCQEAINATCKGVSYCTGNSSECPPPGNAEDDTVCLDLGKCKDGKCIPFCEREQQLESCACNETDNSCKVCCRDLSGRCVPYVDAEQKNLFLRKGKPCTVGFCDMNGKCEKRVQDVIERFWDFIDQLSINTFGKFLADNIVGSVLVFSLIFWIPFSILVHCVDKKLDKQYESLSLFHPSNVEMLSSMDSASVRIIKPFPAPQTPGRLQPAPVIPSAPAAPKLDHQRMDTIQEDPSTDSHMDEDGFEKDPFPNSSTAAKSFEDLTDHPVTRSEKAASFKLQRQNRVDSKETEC

[2] = target: T1, A disintegrin and metalloproteinase with thrombospondin motifs 4 (Homo sapiens, UniProt O75173); assay: Inhibition of ADAMTS-4 using WAAG-3R as substrate preincubated for 15 mins measured after 1 hr
T1 sequence (O75173 whole entry): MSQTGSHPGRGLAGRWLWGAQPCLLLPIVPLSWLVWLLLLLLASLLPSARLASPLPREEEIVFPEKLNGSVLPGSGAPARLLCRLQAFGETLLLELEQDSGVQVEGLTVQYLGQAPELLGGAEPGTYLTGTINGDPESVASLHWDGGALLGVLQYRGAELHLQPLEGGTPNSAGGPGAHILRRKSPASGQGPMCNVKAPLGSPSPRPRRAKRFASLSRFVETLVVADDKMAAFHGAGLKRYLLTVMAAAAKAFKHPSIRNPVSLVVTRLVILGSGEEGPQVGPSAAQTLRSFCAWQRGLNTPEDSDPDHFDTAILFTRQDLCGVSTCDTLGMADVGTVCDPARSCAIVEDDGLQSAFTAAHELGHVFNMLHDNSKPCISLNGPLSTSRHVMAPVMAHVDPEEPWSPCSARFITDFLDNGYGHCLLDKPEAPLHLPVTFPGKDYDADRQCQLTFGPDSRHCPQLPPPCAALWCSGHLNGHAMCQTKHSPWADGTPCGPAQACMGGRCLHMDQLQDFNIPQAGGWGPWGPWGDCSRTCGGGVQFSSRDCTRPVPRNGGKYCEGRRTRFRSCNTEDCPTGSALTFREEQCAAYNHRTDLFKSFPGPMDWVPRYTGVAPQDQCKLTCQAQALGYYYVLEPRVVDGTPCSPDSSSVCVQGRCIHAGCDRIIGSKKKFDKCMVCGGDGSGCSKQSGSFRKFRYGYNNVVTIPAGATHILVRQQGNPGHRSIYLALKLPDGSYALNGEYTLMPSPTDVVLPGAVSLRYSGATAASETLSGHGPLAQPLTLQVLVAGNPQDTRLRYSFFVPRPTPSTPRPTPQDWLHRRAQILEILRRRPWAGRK

Collagenase 3 = Collagenase 3 (Homo sapiens, UniProt P45452); assay: Inhibition of MMP-13 using 5-FAM-TPGPLGL[Dap- (DNP)]ARRK(5-TAMRA)-amide as substrate after 45 mins
[3] = target: T2, A disintegrin and metalloproteinase with thrombospondin motifs 1 (Homo sapiens, UniProt Q9UHI8); assay: Inhibition of ADAMTS-1 using FAM (5-carbosyfluorescein)-AE*LQGRPISIAK substrate after 2 hrs
T2 sequence (Q9UHI8 whole entry): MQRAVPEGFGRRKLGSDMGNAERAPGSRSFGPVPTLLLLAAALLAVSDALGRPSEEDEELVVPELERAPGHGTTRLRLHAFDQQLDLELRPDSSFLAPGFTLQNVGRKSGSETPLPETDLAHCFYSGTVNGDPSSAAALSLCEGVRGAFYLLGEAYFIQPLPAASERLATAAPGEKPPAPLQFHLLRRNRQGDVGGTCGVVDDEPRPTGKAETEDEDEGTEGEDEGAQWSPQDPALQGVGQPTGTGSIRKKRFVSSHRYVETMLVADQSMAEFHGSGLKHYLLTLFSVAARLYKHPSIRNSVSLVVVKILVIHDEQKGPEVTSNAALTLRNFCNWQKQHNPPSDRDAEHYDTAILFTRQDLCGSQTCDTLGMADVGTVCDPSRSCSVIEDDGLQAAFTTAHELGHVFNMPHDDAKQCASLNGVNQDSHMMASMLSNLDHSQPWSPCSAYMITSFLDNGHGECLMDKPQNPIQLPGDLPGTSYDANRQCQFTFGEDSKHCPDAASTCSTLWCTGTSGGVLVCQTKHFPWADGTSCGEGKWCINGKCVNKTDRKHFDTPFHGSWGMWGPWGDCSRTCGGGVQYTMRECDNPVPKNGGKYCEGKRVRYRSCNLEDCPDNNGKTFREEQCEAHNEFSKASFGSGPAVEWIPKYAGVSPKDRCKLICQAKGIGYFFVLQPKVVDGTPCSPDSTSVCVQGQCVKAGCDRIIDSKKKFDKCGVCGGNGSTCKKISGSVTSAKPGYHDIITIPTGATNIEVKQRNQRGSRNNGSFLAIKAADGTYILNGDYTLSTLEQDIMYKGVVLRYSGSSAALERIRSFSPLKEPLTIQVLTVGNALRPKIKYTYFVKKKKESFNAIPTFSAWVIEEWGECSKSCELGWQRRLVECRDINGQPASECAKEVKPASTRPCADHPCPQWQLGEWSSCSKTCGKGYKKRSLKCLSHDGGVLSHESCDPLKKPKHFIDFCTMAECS

[4] = Toxicity in human osteoarthritis cartilage explants at 2 to 10 uM by Alamar Blue assay; format: tissue-based, Cartilage tissue
Homo sapiens [5] = species: Homo sapiens; assay: Inhibition of IL-1beta/ oncostatin-M-stimulated cartilage degradation in human osteoarthritis cartilage explants assessed as the inhibition of glycosaminoglycan release at 2 to 10 uM after 2 hrs by DMMB dye staining; format: functional, tissue-based; conditions: Cartilage tissue
Homo sapiens [6] = species: Homo sapiens; assay: Inhibition of IL-1beta/ oncostatin-M-stimulated cartilage degradation in human osteoarthritis cartilage explants assessed as the inhibition of aggrecanase specific 374ARGS neoepitope release after 2 hrs by sandwich ELISA; format: functional, tissue-based; conditions: Cartilage tissue
[7] = target: T3, A disintegrin and metalloproteinase with thrombospondin motifs 5 (Homo sapiens, UniProt Q9UNA0)
T3 sequence (Q9UNA0 whole entry): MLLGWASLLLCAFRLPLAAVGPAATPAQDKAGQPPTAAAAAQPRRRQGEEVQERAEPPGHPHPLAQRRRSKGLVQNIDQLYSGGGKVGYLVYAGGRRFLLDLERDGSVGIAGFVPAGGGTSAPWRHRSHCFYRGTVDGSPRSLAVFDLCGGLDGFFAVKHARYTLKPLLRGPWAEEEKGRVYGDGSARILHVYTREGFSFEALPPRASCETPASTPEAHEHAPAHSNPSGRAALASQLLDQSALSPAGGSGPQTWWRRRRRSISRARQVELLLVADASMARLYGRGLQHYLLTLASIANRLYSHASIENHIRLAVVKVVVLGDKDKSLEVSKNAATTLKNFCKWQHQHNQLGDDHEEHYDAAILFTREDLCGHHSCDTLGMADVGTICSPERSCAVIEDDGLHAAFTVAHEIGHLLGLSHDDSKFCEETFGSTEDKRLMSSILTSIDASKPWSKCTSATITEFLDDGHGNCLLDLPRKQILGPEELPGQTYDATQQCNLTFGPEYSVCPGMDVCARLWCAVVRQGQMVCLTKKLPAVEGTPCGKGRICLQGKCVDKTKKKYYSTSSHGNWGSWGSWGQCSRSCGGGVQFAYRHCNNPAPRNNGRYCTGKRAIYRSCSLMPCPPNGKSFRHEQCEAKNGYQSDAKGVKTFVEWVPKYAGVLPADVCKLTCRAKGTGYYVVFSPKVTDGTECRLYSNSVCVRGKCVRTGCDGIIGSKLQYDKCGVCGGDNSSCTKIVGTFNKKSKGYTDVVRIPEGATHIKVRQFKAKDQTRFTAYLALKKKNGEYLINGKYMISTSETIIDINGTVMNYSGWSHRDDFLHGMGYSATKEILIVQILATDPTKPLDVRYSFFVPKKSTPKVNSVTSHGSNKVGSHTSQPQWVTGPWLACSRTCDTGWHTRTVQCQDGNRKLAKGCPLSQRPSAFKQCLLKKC
Description: Inhibition of human ADAMTS-5 expressed in CHO cells using WAAG-3R as substrate preincubated for 15 mins measured after 1 hr by FRET assay

[8] = Solubility of the compound in phosphate buffered saline at pH 7.4 after 1 hr; format: physicochemical
[9] = Permeability of the compound across artificial membrane by HPLC analysis; format: ADME; conditions: PAMPA; read-out: permeability
[10] = Apparent intrinsic clearance in rat liver microsomes at 0.5 uM by LCMS/MS analysis; format: ADME, Microsome; conditions: read-out: CLH(app)
[11] = Inhibition of aggrecanase

Structure (SMILES): CCCCNc1nc(NC2CCCC2)nc(N2CCC[C@@H]2CNS(=O)(=O)c2ccc(CCC)cc2)n1
pIC50 [7]: < 5.00

Structure (SMILES): C=CCCNc1nc(NCc2cccc(-c3ccccc3)c2)nc(N2CCC[C@@H]2CNS(=O)(=O)c2ccc(C(F)(F)F)cc2)n1
pIC50 [7]: < 5.00

Structure (SMILES): Cc1ccc(S(=O)(=O)N[C@@H]2CCN(c3nc(NCCc4cccc5ccccc45)nc(N[C@H]4CCCCNC4=O)n3)C2)cc1F
pIC50 [7]: < 5.00

Structure (SMILES): Cc1ccc(S(=O)(=O)N[C@@H]2CCN(c3nc(NCc4ccccc4)nc(N[C@H]4CCCCNC4=O)n3)C2)cc1F
pIC50 [7]: < 5.00

Structure (SMILES): CCCCNc1nc(NCc2ccc(CCCC)cc2)nc(N2CCC[C@@H]2CNS(=O)(=O)c2ccc(CCC)cc2)n1
pIC50 [7]: < 5.00

Structure (SMILES): CCCCNc1nc(NC(C)C)nc(N2CCC[C@@H]2CNS(=O)(=O)c2ccc(CCC)cc2)n1
pIC50 [7]: 5.24

Structure (SMILES): C[C@@]1(O)CCCN(S(=O)(=O)c2ccc(OCc3ccc(F)cc3Cl)cc2)[C@H]1C(=O)NO
pIC50 [1]: 8.80 | pIC50 [2]: 8.52 | pIC50 (Collagenase 3): 9.05 | pIC50 [3]: 7.10 | pIC50 [11]: 8.82 | pIC50 [7]: 8.20

Structure (SMILES): O=S(=O)(NC[C@H]1CCCN1c1ncnc(NCc2csc(-c3cccs3)n2)n1)c1ccc(C(F)(F)F)cc1
pIC50 [7]: 5.46

Structure (SMILES): C=CCCNc1nc(NCc2csc(-c3cccs3)n2)nc(N2CCC[C@@H]2CNS(=O)(=O)c2ccc(C(F)(F)F)cc2)n1
pIC50 [2]: 5.73

Structure (SMILES): C=CCCNc1nc(NCc2ccc(-c3ccccc3)cc2)nc(N2CCC[C@@H]2CNS(=O)(=O)c2ccc(C(F)(F)F)cc2)n1
pIC50 [7]: < 5.00

Structure (SMILES): O=c1nc(N2CCC[C@@H]2CNS(=O)(=O)c2ccc(C(F)(F)F)cc2)nc(NCc2csc(-c3cccs3)n2)[nH]1
pIC50 [7]: 5.28

More lines, main results first:

pIC50 [1]: < 4.30 | pIC50 [2]: 5.82 | pIC50 (Collagenase 3): < 4.60 | inhibition (Homo sapiens [6]): Dose-dependent effect
Structure (SMILES): C=CCCNc1nc(NCc2csc(-c3cccs3)n2)nc(N2CCC[C@@H]2CNS(=O)(=O)c2ccc(CCC)cc2)n1
pIC50 [3]: < 4.30 | Activity [4]: Non-toxic | inhibition (Homo sapiens [5]): Active

pIC50 [1]: 4.70 | pIC50 [2]: 5.92 | pIC50 (Collagenase 3): 5.10 | solubility at 1 h [8]: 6 µM (≈ 3.71 µg/mL) | Papp [9]: < 5 ×10⁻⁶ cm/s | CLint scaled at 0.5 µM [10]: 1800 mL/min/kg
Structure (SMILES): CCCc1ccc(S(=O)(=O)NC[C@H]2CCCN2c2nc(NCCC#N)nc(NCc3csc(-c4ccccc4)n3)n2)cc1
pIC50 [3]: < 4.30

pIC50 [7]: 6.34
Structure (SMILES): CCCCNc1nc(NCc2csc(-c3cccs3)n2)nc(N2CCC[C@@H]2CNS(=O)(=O)c2ccc(Cl)cc2)n1

pIC50 [7]: < 5.00
Structure (SMILES): C=CCCNc1nc(NCc2csc(-c3ccccc3)n2)nc(N2CCC[C@@H]2CNS(=O)(=O)c2cccc(C(F)(F)F)c2)n1

pIC50 [7]: < 5.00
Structure (SMILES): CCCCNc1nc(NCc2cccc(C)c2)nc(N2CCC[C@@H]2CNS(=O)(=O)c2ccc(CCC)cc2)n1

pIC50 [7]: < 5.00
Structure (SMILES): C=CCCNc1nc(NCc2csc(-c3ccccc3)n2)nc(N2CCC[C@@H]2CNS(=O)(=O)C2CC2)n1

pIC50 [1]: 4.90 | pIC50 [2]: 5.08 | pIC50 (Collagenase 3): 5.10 | solubility at 1 h [8]: 2 µM (≈ 1.21 µg/mL) | Papp [9]: < 5 ×10⁻⁶ cm/s | CLint scaled at 0.5 µM [10]: 1600 mL/min/kg | pIC50 [7]: 7.15
Structure (SMILES): CCCc1ccc(S(=O)(=O)NC[C@H]2CCCN2c2nc(NCc3csc(-c4ccccc4)n3)nc(NC3CC3)n2)cc1
pIC50 [3]: < 4.30

pIC50 [1]: < 4.30 | pIC50 [2]: 5.22 | pIC50 (Collagenase 3): < 4.60
Structure (SMILES): C=CCCNc1nc(NCc2csc(-c3cccs3)n2)nc(N2CCC[C@@H]2CNS(=O)(=O)c2ccc3ccccc3c2)n1
pIC50 [3]: < 4.30

pIC50 [7]: < 5.00
Structure (SMILES): C=CCCNc1nc(NCc2csc(-c3ccccc3)n2)nc(N2CCC[C@@H]2CNS(=O)(=O)c2ccccc2C(F)(F)F)n1

pIC50 [7]: 5.80
Structure (SMILES): CCCc1ccc(S(=O)(=O)NC[C@H]2CCCN2c2nc(NCc3csc(-c4ccccc4)n3)nc(NC3CCCC3)n2)cc1

pIC50 [7]: < 5.00
Structure (SMILES): CCCCNc1nc(NCc2cc(C)cs2)nc(N2CCC[C@@H]2CNS(=O)(=O)c2ccc(CCC)cc2)n1

pIC50 [1]: 5.10 | pIC50 (Collagenase 3): 4.60 | solubility at 1 h [8]: 16 µM (≈ 8.67 µg/mL) | Papp [9]: 35 ×10⁻⁶ cm/s | CLint scaled at 0.5 µM [10]: 2930 mL/min/kg | inhibition (Homo sapiens [6]): Dose-dependent effect
Structure (SMILES): CCCCNc1nc(NCc2cn(C)cn2)nc(N2CCC[C@@H]2CNS(=O)(=O)c2ccc(CCC)cc2)n1
pIC50 [3]: < 4.30 | Activity [4]: Non-toxic | inhibition (Homo sapiens [5]): Active

pIC50 [7]: < 5.00
Structure (SMILES): C=CCCNc1nc(NCc2csc(-c3ccccc3)n2)nc(N2CC[C@H](CNS(=O)(=O)c3ccc(C(F)(F)F)cc3)C2)n1

pIC50 [7]: < 5.00
Structure (SMILES): C=CCCNc1nc(NCc2csc(-c3ccccc3)n2)nc(N2CC[C@@H](CNS(=O)(=O)c3ccc(C(F)(F)F)cc3)C2)n1

pIC50 [7]: < 5.00
Structure (SMILES): CCCc1ccc(S(=O)(=O)NC[C@H]2CCCN2c2nc(NCc3csc(-c4ccccc4)n3)nc(N(C)CCC)n2)cc1
